# System: HBV
# Assay: Viral production from HepAD38 cells, viral load by qPCR of HBV core sequence
# Type: cell-based
# Details: 5 days, supernatant HBV DNA by qPCR, read-out: Viral Load EC50 Activity range
# Protocol: Assay Measuring Activity of Test Compounds on Viral Production from HepAD38 Cells
# HepAD38 cells grown in a T-150 flask (Corning, cat #: 430825) with Growth Medium (DMEM/F12 (1:1) (Hyclone, cat #: SH30023.02), 1× Pen/Strep (Invitrogen, cat #: 15140-122), 10% FBS (Tissue Culture Biologics, cat #: 101), 250 μg/mL G418 (Alfa Aesar, cat #: J62671), 1 μg/mL Tetracycline (Teknova, cat #: T3320)) were detached with 0.25% trypsin-EDTA to (Invitrogen, cat #: 25200-056). Tetracycline-free treatment medium (15 mL DMEM/F12 (1:1) 1× Pen/step, with 2% FBS, Tet-system approved (Clontech, cat #: 631106) were then added to mix, transferred into a 50 ml conical tube (Falcon, cat #: 21008-918,) and spun at 1300 rpm for 5 min. Pelleted cells were then re-suspended/washed with 50 mL of 1×DPBS (Invitrogen, cat #: 14190-136) 2 times and 50 mL treatment medium twice. HepAD38 cells were then re-suspended with 10 mL of treatment medium, syringed and counted. Wells of 96-well clear bottom TC plate (Corning, cat #: 3904,) were seeded at 50,000 cells/well in 180 μL of treatment medium, and 20 μL of either 10% DMSO (Sigma, cat #: D4540) as controls or a 10× solution of test compounds in 10% DMSO in treatment media was added for a final compound concentration starting at 10 μM, and plates were incubated in 5% CO2 incubator at 37° C. for 5 days.
# Subsequently viral load production was assayed by quantitative PCR (qPCR) of the HBV core sequence. PCR reaction mixture containing forward primers HBV-f 5′-CTGTGCCTTGGGTGGCTTT-3′ (IDT DNA), Reverse primers HBV-r 5′-[…]-3′ (IDT DNA), Fluorescent TaqMan™ Probes HBV-probe 5′-FAM/AGCTCCAAA/ZEN/[…]/3IABkFQ-3′ (IDT DNA), 10 μL/well of PerfeCTa® qPCR ToughMix® (Quanta Biosciences, Cat #: 95114-05K), and 6 μL/well of DEPC water (Alfa Aesar, cat #: J62087) was prepared. […] of supernatant was added to 16 μL of the reaction mixture in a qPCR plate (Applied Biosytems, Cat #: 4309849), sealed with a film (Applied Biosystems, Cat #: 4311971), centrifuged for a few seconds, and subsequently run on an Applied Biosystems VIIA7. The PCR mixture was incubated at 45° C. for 5 min, then 95° C. for 10 min, followed by 40 cycles of 10 seconds at 95° C. and 20 seconds at 60° C. Viral load was quantified against known HBV DNA standards by using ViiA™ 7 Software. Viral load in the supernatant from wells with treated cells were compared against viral load in supernatant from DMSO control wells (>3 per plate). Cell viability assay was performed with CellTiter-Glo Luminescent Cell Viability Assay (Promega, cat #: G7573) with modification. Mixed appropriate amount of CellTiter-Glo (CTG) 1×DPBS in a 1:1 ratio, added 100 uL of the mixture to each well followed completely removal of all supernatant in each well without touching cell surface. Incubated the plate at room temperature for 10 min on an orbital shaker, and then read the plate with a plate reader (TECAN M1000 or Envision). EC50 or CC50 values were calculated through curve-fitting of the four-parameter nonlinear-logistic-regression model (GraphPad Prism or Dotmatics). CC50 values were all >10 μM.
row,SMILES,EC50 [nM]
1,"COc1cc(C(=O)NCCS(C)(=O)=O)ccc1C1CCC(c2nn(C)c(N)c2C(=O)Nc2ccc(F)c(Cl)c2)C1 (stereo not shown) [AIA-387-2, 5-Amino-N-(3-chloro-4-fluorophenyl)-3-(3-(2-methoxy-4-((2-(methylsulfonyl)ethyl)carbamoyl)phenyl)cyclopentyl)-1-methyl-1H-pyrazole-4-carboxamide]",< 100
2,CCOC(=O)CC1CC2CC(c3nn(C)c(N)c3C(=O)Nc3ccc(F)c(Cl)c3)CC2C1 (stereo not shown) [AIA-018],< 100
3,Cn1nc(C2CC3COC(=O)CC3C2)c(C(=O)Nc2ccc(F)c(Cl)c2)c1N (stereo not shown) [AIA-275],< 100
4,Cn1nc(C2CC3CC4(CC3C2)OCCO4)c(C(=O)Nc2ccc(F)c(Cl)c2)c1N (stereo not shown) [AIA-290],< 100
5,Cn1cc(C2CC3CC(c4nn(C)c(N)c4C(=O)Nc4ccc(F)c(Cl)c4)CC3C2)cn1 (stereo not shown) [AIA-049],< 100
6,COc1cccc(C2CCC(c3nn(C)c(N)c3C(=O)Nc3ccc(F)c(Cl)c3)C2)c1 (stereo not shown) [AIA-276],< 100
7,CSC1CC2CC(c3nn(C)c(N)c3C(=O)Nc3ccc(F)c(Cl)c3)CC2C1 (stereo not shown) [AIA-028],< 100
8,Cn1nc(C2CC3CNC(=O)CC3C2)c(C(=O)Nc2ccc(F)c(Cl)c2)c1N (stereo not shown) [AIA-033],< 100
9,Cn1nc(C2CC3CC(O)(CSCCO)CC3C2)c(C(=O)Nc2ccc(F)c(Cl)c2)c1N (stereo not shown) [AIA-283],< 100
10,Cn1nc(C2CC3CC(N4CCNC4=O)CC3C2)c(C(=O)Nc2ccc(F)c(Cl)c2)c1N (stereo not shown) [AIA-047],< 100
11,CCOC(=O)C=C1CC2CC(c3nn(C)c(N)c3C(=O)Nc3ccc(F)c(Cl)c3)CC2C1 (stereo not shown) [AIA-017],< 100
12,Cn1nc(C2CC3CC(O)(C(C)(C)O)CC3C2)c(C(=O)Nc2ccc(F)c(Cl)c2)c1N (stereo not shown) [AIA-257],< 100
13,Cn1nc([C@H]2CC3C/C(=N/O)C[C@@H]3C2)c(C(=O)Nc2ccc(F)c(Cl)c2)c1N (stereo partly shown) [AIA-032-B],< 100
14,"COc1cc(-c2ncc[nH]2)ccc1C1CCC(c2nn(C)c(N)c2C(=O)Nc2ccc(F)c(Cl)c2)C1 (single isomer, unassigned) [AIA-352-1, 3-(3-(4-(1H-Imidazol-2-yl)-2-methoxyphenyl)cyclopentyl)-5-amino-N-(3-chloro-4-fluorophenyl)-1-methyl-1H-pyrazole-4-carboxamide]",500 to 10000
15,CC(=O)NC1CC2CC(c3nn(C)c(N)c3C(=O)Nc3ccc(F)c(Cl)c3)CC2C1 (stereo not shown) [AIA-288],< 100
16,"Cn1nc(C2CC3C[S+]([O-])CC3C2)c(C(=O)Nc2ccc(F)c(Cl)c2)c1N (single isomer, unassigned) [AIA-056-B, 5-Amino-N-(3-chloro-4-fluorophenyl)-1-methyl-3-(2-oxidohexahydro-1H-cyclopenta[c]thiophen-5-yl)-1H-pyrazole-4-carboxamide]",500 to 10000

# Same assay, conditions: Hepatitis B virus, HePAD38, 120 h, 5 days, supernatant HBV DNA by qPCR, read-out: Viral Load EC50 Activity range
row,SMILES,EC50 [nM]
1,"Cn1nc(C2CC3CC(O)(CSCC(F)(F)F)CC3C2)c(C(=O)Nc2ccc(F)c(Cl)c2)c1N (single isomer, unassigned) [AIA-258-2, 5-Amino-N-(3-chloro-4-fluorophenyl)-3-(5-hydroxy-5-(((2,2,2-trifluoroethyl)thio)methyl)octahydropentalen-2-yl)-1-methyl-1H-pyrazole-4-carboxamide]",< 100
2,"COc1ccc([C@@H]2CC[C@@H](c3nn(C)c(N)c3C(=O)Nc3ccc(F)c(Cl)c3)C2)cc1 [AIA-003-D, 5-amino-N-(3-chloro-4-fluorophenyl)-3-((1R,3R)-3-(4-methoxyphenyl)cyclopentyl)-1-methyl-1H-pyrazole-4-carboxamide]",< 100
3,"Cn1cc(C2CCC(c3nn(C)c(N)c3C(=O)Nc3ccc(F)c(Cl)c3)C2)cn1 (single isomer, unassigned) [AIA-004-B, 5-Amino-N-(3-chloro-4-fluorophenyl)-1-methyl-3-(3-(1-methyl-1H-pyrazol-4-yl)cyclopentyl)-1H-pyrazole-4-carboxamide]",100 to 500
4,"CN(C)S(=O)(=O)CC1(O)CC2CC(c3nn(C)c(N)c3C(=O)Nc3ccc(F)c(Cl)c3)CC2C1 (stereo not shown) [AIA-265, 5-Amino-N-(3-chloro-4-fluorophenyl)-3-(5-((N,N-dimethylsulfamoyl)methyl)-5-hydroxyoctahydropentalen-2-yl)-1-methyl-1H-pyrazole-4-carboxamide]",< 100
5,"CN(C)C(=O)CC1(O)CC2CC(c3nn(C)c(N)c3C(=O)Nc3ccc(F)c(Cl)c3)CC2C1 (stereo not shown) [AIA-270, 5-Amino-N-(3-chloro-4-fluorophenyl)-3-(5-(2-(dimethylamino)-2-oxoethyl)-5-hydroxyoctahydropentalen-2-yl)-1-methyl-1H-pyrazole-4-carboxamide]",< 100
6,"Cn1nc(C2CC3CC(n4cccn4)CC3C2)c(C(=O)Nc2ccc(F)c(Cl)c2)c1N (stereo not shown) [AIA-048, 3-(5-(1H-Pyrazol-1-yl)octahydropentalen-2-yl)-5-amino-N-(3-chloro-4-fluorophenyl)-1-methyl-1H-pyrazole-4-carboxamide]",< 100
7,"Cn1nc(C2CCC(c3ccccc3)C2)c(C(=O)Nc2cc(F)c(F)c(Br)c2)c1N (stereo not shown) [AIA-278, 5-Amino-N-(3-bromo-4,5-difluorophenyl)-1-methyl-3-(3-phenylcyclopentyl)-1H-pyrazole-4-carboxamide]",100 to 500
8,"Cn1nc(C2CC3CC(CC(N)=O)CC3C2)c(C(=O)Nc2ccc(F)c(Cl)c2)c1N (stereo not shown) [AIA-021, 5-Amino-3-(5-(2-amino-2-oxoethyl)octahydropentalen-2-yl)-N-(3-chloro-4-fluorophenyl)-1-methyl-1H-pyrazole-4-carboxamide]",< 100
9,"CCN(CC)C1CC2CC(c3nn(C)c(N)c3C(=O)Nc3ccc(F)c(Cl)c3)CC2C1 (stereo not shown) [AIA-012, 5-Amino-N-(3-chloro-4-fluorophenyl)-3-(5-(diethylamino)octahydropentalen-2-yl)-1-methyl-1H-pyrazole-4-carboxamide]",100 to 500
10,"COc1cc(C(=O)NCCN)ccc1C1CCC(c2nn(C)c(N)c2C(=O)Nc2ccc(F)c(Cl)c2)C1 (stereo not shown) [AIA-388, 5-Amino-3-(3-(4-((2-aminoethyl)carbamoyl)-2-methoxyphenyl)cyclopentyl)-N-(3-chloro-4-fluorophenyl)-1-methyl-1H-pyrazole-4-carboxamide]",100 to 500
11,"CCS(=O)(=O)C1CC2CC(c3nn(C)c(N)c3C(=O)Nc3ccc(F)c(Cl)c3)CC2C1 (stereo not shown) [AIA-031, 5-Amino-N-(3-chloro-4-fluorophenyl)-3-(5-(ethylsulfonyl)octahydropentalen-2-yl)-1-methyl-1H-pyrazole-4-carboxamide]",< 100
12,"Cn1nc(C2CC3CC(O)(C[S+]([O-])CC(F)(F)F)CC3C2)c(C(=O)Nc2ccc(F)c(Cl)c2)c1N (stereo not shown) [AIA-259-A, 5-Amino-N-(3-chloro-4-fluorophenyl)-3-((2r,5r)-5-hydroxy-5-((2,2,2-trifluoroethylsulfinyl)methyl)octahydropentalen-2-yl)-1-methyl-1H-pyrazole-4-carboxamide]",< 100
13,"Cn1nc(C2CC3CC(O)(CS(=O)(=O)CCCN4CCNCC4=O)CC3C2)c(C(=O)Nc2ccc(F)c(Cl)c2)c1N (single isomer, unassigned) [AIA-351-a, 5-Amino-N-(3-chloro-4-fluorophenyl)-3-(5-hydroxy-5-(((3-(2-oxopiperazin-1-yl)propyl)sulfonyl)methyl)octahydropentalen-2-yl)-1-methyl-1H-pyrazole-4-carboxamide]",500 to 10000
14,"Cn1nc([C@@H]2CC[C@@H](c3cnc(C(F)(F)F)s3)C2)c(C(=O)Nc2ccc(F)c(Cl)c2)c1N [AIA-354, 5-Amino-N-(3-chloro-4-fluorophenyl)-1-methyl-3-((1R,3R)-3-(2-(trifluoromethyl)thiazol-5-yl)cyclopentyl)-1H-pyrazole-4-carboxamide]",500 to 10000
15,"Cn1nc(C2CCC(c3ccccc3Cl)C2)c(C(=O)Nc2ccc(F)c(Cl)c2)c1N (stereo not shown) [AIA-272, 5-Amino-N-(3-chloro-4-fluorophenyl)-3-(3-(2-chlorophenyl)cyclopentyl)-1-methyl-1H-pyrazole-4-carboxamide]",< 100
